Data on 24 molecules can be found in patent US7151105B2, “Inhibitors of Hepatitis C virus RNA-dependent RNA polymerase, and compositions and treatments using the same” (Agouron Pharmaceuticals, Inc., priority 2004, dated 2006).

pIC50: −log10 of the molar value.

The target in one test is T1, Recombinant HCV polymerase (Hepatitis C virus genotype 1b, UniProt P26663).
T1 construct: Recombinant HCV polymerase was tested for its ability to perform primer/template-directed transcription
T1 sequence (P26663 2420-3010): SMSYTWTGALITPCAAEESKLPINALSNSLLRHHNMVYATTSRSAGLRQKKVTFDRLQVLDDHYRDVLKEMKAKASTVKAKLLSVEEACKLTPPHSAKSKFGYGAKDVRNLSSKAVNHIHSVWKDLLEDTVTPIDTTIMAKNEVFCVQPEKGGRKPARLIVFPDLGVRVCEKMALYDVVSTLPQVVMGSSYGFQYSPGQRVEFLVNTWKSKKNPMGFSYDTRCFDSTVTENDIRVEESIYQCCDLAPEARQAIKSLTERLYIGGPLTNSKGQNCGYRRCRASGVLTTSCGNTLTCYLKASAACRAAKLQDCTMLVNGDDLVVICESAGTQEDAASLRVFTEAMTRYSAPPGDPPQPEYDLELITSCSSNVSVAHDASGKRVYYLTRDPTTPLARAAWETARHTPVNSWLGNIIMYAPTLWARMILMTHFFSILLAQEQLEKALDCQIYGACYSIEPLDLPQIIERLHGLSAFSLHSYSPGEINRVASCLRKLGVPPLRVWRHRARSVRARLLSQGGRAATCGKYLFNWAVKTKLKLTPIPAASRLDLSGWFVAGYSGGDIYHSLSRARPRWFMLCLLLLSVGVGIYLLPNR
As to the kind of experiment: biochemical. As to conditions: inhibition of polymerase-directed transcription; 30 min at 30° C; 30 nM enzyme; cpm data in triplicate. The protocol: The compounds described herein were tested for activity with HCV polymerase. Recombinant HCV polymerase was tested for its ability to perform primer/template-directed transcription in assays that contained 30 mM tris-HCl pH 7.2, 10 mM MgCl2, 20 mM NaCl, 1 mM Dithiothreitol (DTT), 0.05% Tween-20, 1% glycerol, 5 pmoles biotin-dG12 (primer), 0.5 pmoles poly(rC)300 (template), 1 μM GTP, 0.1–0.3 uCi α-^32P-GTP, and 2.5 pmoles (0.15 μg) HCV polymerase protein in a final volume of 75 μL. Reactions were initiated by addition of enzyme and incubated 30 minutes at 30° C. Reactions were stopped by addition of 33 mM EDTA, and polynucleotide products were collected by filtration through Diethylaminoethyl (DE) Filtermat papers (Wallac). Unincorporated triphosphate was removed by washing the filters with 5% dibasic sodium phosphate. The filters were counted in a Packard Tri-Lux Microbeta scintillation counter (Packard Bioscience, Meriden, Conn.). Compounds to be tested were added at various concentrations, e.g., 1 μm to 50 μm, from stocks in 10% DMSO-water (final DMSO is 1% in reaction).
IC50 values were estimated from the primary cpm data (collected in triplicate) using the formula: cpm (I)=cpm (no inhibitor)(1−([I]/([I]+IC50))). […] A percent inhibition value is expressed for a compound where it was impractical to calculate an IC50 value with available data.
For the molecule `CCc1cc(CCC2(C3CCCC3)CC(O)=C(Cc3nc4nc(C)cc(C)n4n3)C(=O)O2)ccc1CNC(C)=O` (single isomer, unassigned; enantiomer 2) [A(133), Enantiomer 2 of N-[4-(2-{2-cyclopentyl-5-[(5,7-dimethyl[1,2,4]triazolo[1,5-a]pyrimidin-2-yl)methyl]-4-hydroxy-6-oxo-3,6-dihydro-2H-pyran-2-ylethyl)-2-ethylbenzyl]acetamide], the negative logarithm of the IC50 (pIC50) – broadly, −log10 of the IC50, conventionally taken in molar units – is 8.30.

`CCc1cc(CC[C@]2(C3CCCC3)CC(O)=C(Cc3nc4ncc(C)cn4n3)C(=O)O2)c(O)cc1O` [A(21), (6R)-6-cyclopentyl-6-[2-(5-ethyl-2,4dihydroxyphenyl)ethyl]-4-hydroxy-3-[(6-methyl[1,2,4]triazolo[1,5-a]pyrimidin-2-yl)methyl]-5,6-dihydro-2H-pyran-2-one]: the negative-log IC50 (pIC50) was 9.00.

In the case of `COc1cc(OC)c(CCC2(C3CCCC3)CC(O)=C(Cc3nc(-c4cnccn4)nn3C)C(=O)O2)cc1Cl` (stereo not drawn) [B(15), 6-[2-(5-Chloro-2,4-dimethoxyphenyl)ethyl]-6-cyclopentyl-4-hydroxy-3-[(1-methyl-3-pyrazin-2-yl-1H-1,2,4-triazol-5-yl)methyl]-5,6-dihydro-2H-pyran-2-one], the pIC50 is 7.72.

As to `CCc1cc(CCC2(C3CCCC3)CC(O)=C(Cc3nc4nc(C)cc(C)n4n3)C(=O)O2)ccc1CNS(C)(=O)=O` (single isomer, unassigned; enantiomer 2) [A(130), Enantiomer 2 of N-[4-(2-{2-cyclopentyl-5-[(5,7-dimethyl[1,2,4]triazolo[1,5-a]pyrimidin-2-yl)methyl]-4-hydroxy-6-oxo-3,6-dihydro-2H-pyran-2-yl}ethyl)-2-ethylbenzyl]methanesulfonamide], the negative logarithm of the IC50 (pIC50) was 8.52.

With `Cc1cc(C)n2nc(CC3=C(O)CC(CCc4ccc(C(C)(C)C#N)c(C(F)(F)F)c4)(C4CCCC4)OC3=O)nc2n1` (racemic) [Example B(28), 2-[4-(2-{2-cyclopentyl-5-[(5,7-dimethyl[1,2,4]triazolo[1,5-a]pyrimidin-2-yl)methyl]-4-hydroxy-6-oxo-3,6-dihydro-2H-pyran-2-yl}ethyl)-2-(trifluoromethyl)phenyl]-2-methylpropanenitrile], the pIC50 was 8.30.

For `CCc1cc(CCC2(C3CCCC3)CC(O)=C(Cc3nc4nc(C)cc(C)n4n3)C(=O)O2)c(OC)cn1` (stereo not drawn) [A(3), 6-Cyclopentyl-3-[(5,7-dimethyl[1,2,4]triazolo[1,5-a]pyrimidin-2-yl)methyl]-6-[2-(2-ethyl-5-methoxypyridin-4-yl)ethyl]-4-hydroxy-5,6-dihydro-2H-pyran-2-one], the pIC50 was 9.00.

As for `CCc1cc(CCC2(C3CCCC3)CC(O)=C(Cc3nc4ncc(C)cn4n3)C(=O)O2)cc(CC)n1` (stereo not drawn) [A(36)], the pIC50 was 7.52.

For the molecule `COc1cc(O)c(C(C)=O)cc1CCC1(C2CCCC2)CC(=O)CC(=O)O1` (stereo not drawn) [A(99), 6-[2-(5-Acetyl-4-hydroxy-2-methoxyphenyl)ethyl]-6-cyclopentyldihydro-2H-pyran-2,4(3H)-dione], the negative logarithm of the IC50 (pIC50) is 5.08.

In the case of `O=C1CC(=O)OC(CCc2ccc(C(=O)O)c(F)c2)(C2CCCC2)C1` (stereo not drawn) [B(6), 4-[2-(2-Cyclopentyl-4,6-dioxotetrahydro-2H-pyran-2-yl)ethyl]-2-fluorobenzoic acid], the pIC50 was 4.92.

Regarding `CCc1cc(CCC2(C3CCCC3)CC(O)=C(Cc3nc4ncccn4n3)C(=O)O2)ccc1-c1ncco1` (stereo not drawn) [A(136), 6-Cyclopentyl-6-{2-[3-ethyl-4-(1,3-oxazol-2-yl)phenyl]ethyl}-4-hydroxy-3-([1,2,4]triazolo[1,5-a]pyrimidin-2-ylmethyl)-5,6-dihydro-2H-pyran-2-one], the pIC50 is 8.52.

With `Cc1cc(C)n2nc(CC3=C(O)CC(CCc4ccc(O)c(CC(F)(F)F)c4)(C4CCCC4)OC3=O)nc2n1` (single isomer, unassigned) [A(75), 6-cyclopentyl-3-[(5,7-dimethyl[1,2,4]triazolo[1,5-a]pyrimidin-2-yl)methyl]-4-hydroxy-6-{2-[4-hydroxy-3-(2,2,2-trifluoroethyl)phenyl]ethyl}-5,6-dihydro-2H-pyran-2-one], the negative-log IC50 (pIC50) is 8.30.

Take `COC(=O)c1ccc(CCC2(C3CCCC3)CC(=O)CC(=O)O2)cc1F` (stereo not drawn) [B(5), Methyl 4-[2-(2-cyclopentyl-4,6-dioxotetrahydro-2H-pyran-2-yl)ethyl]-2-fluorobenzoate]: the pIC50 was 4.66.

Regarding `Cn1cc(CC2=C(O)CC(CCc3ccc(C(C)(C)C#N)c(Cl)c3)(C3CCCC3)OC2=O)cn1` (stereo not drawn) [B(24), 2-[2-Chloro-4-(2-{2-cyclopentyl-4-hydroxy-5-[(1-methyl-1H-pyrazol-4-yl)methyl]-6-oxo-3,6-dihydro-2H-pyran-2-yl}ethyl)phenyl]-2-methylpropanenitrile], the negative-log IC50 (pIC50) is 7.00.

Regarding `CCc1cc(CCC2(C3CCCC3)CC(O)=C(Cc3nc4nc(C)cc(C)n4n3)C(=O)O2)ccc1CNC(C)=O` (single isomer, unassigned; enantiomer 1) [A(132), Enantiomer 1 of N-[4-(2-[2-cyclopentyl-5-[(5,7-dimethyl[1,2,4]triazolo[1,5-a]pyrimidin-2-yl)methyl]-4-hydroxy-6-oxo-3,6-dihydro-2H-pyran-2-yl}ethyl)-2-ethylbenzyl]acetamide], the negative logarithm of the IC50 (pIC50) was 7.46.

Regarding `CCOc1cnc(CC)cc1CCC1(C2CCCC2)CC(O)=C(Cc2nc3nc(C)cc(C)n3n2)C(=O)O1` (single isomer, unassigned) [A(52), 6-cyclopentyl-3-[(5,7-dimethyl[1,2,4]triazolo[1,5-a]pyrimidin-2-yl)methyl]-6-[2-(5-ethoxy-2-ethylpyridin-4-yl)ethyl]-4-hydroxy-5,6-dihydro-2H-pyran-2-one], the negative-log IC50 (pIC50) is 8.52.

Regarding `Cc1cc(C)n2nc(CC3=C(O)CC(CCc4ccc(O)c(C(F)(F)F)c4)(C4CCCC4)OC3=O)nc2n1` (stereo not drawn) [A(28), 6-Cyclopentyl-3-[(5,7-dimethyl[1,2,4]triazolo[1,5-a]pyrimidin-2-yl)methyl]-4-hydroxy-6-{2-[4-hydroxy-3-(trifluoromethyl)phenyl]ethyl}-5,6dihydro-2H-pyran-2-one], the negative logarithm of the IC50 (pIC50) was 8.70.

For the molecule `CCc1cc(CCC2(C3CCCC3)CC(O)=C(Cc3nc4nc(C)cc(C)n4n3)C(=O)O2)ccc1CNS(C)(=O)=O` (single isomer, unassigned; enantiomer 1) [A(129), Enantiomer 1 of N-[4-(2-{2-cyclopentyl-5-[(5,7-dimethyl[1,2,4]triazolo[1,5-a]pyrimidin-2-yl)methyl]-4-hydroxy-6-oxo-3,6-dihydro-2H-pyran-2-yl}ethyl)-2-ethylbenzyl]methanesulfonamide], the negative-log IC50 (pIC50) is 8.40.

For `CCc1cc(CCC2(C3CCCC3)CC(O)=C(Cc3nc4nc(C)cc(C)n4n3)C(=O)O2)ccc1CO` (single isomer, unassigned; enantiomer 2) [A(115), Enantiomer 2 6-cyclopentyl-3-[(5,7-dimethyl[1,2,4]triazolo[1,5-a]pyrimidin-2-yl)methyl]-6-{2-[3-ethyl-4-(hydroxymethyl)phenyl]ethyl}-4-hydroxy-5,6-dihydro-2H-pyran-2-one], the negative logarithm of the IC50 (pIC50) is 8.22.

Consider `CCc1ccnc(CCC2(C3CCCC3)CC(O)=C(Cc3nc4nc(C)cc(C)n4n3)C(=O)O2)c1` (stereo not drawn) [A(15), 6-Cyclopentyl-3-[(5,7-dimethyl[1,2,4]triazolo[1,5-a]pyrimidin-2-yl)methyl]-6-[2-(4-ethylpyridin-2-yl)ethyl]-4-hydroxy-5,6-dihydro-2H-pyran-2-one], for which the pIC50 is 8.15.

Turning to `CCc1cc(CCC2(C3CCCC3)CC(=O)CC(=O)O2)ccc1-c1ncco1` (stereo not drawn) [A(135), 6-Cyclopentyl-6-{2-[3-ethyl-4-(1,3-oxazol-2-yl)phenyl]ethyl}dihydro-2H-pyran-2,4(3H)-dione], the negative-log IC50 (pIC50) was 6.68.

On to `CCCOc1cnc(CC)cc1CCC1(C2CCCC2)CC(O)=C(Cc2nc3nc(C)cc(C)n3n2)C(=O)O1` (stereo not drawn) [A(42), 6-Cyclopentyl-3-[(5,7-dimethyl[1,2,4]triazolo[1,5-a]pyrimidin-2-yl)methyl]-6-[2-(2-ethyl-5propoxypyridin-4-yl)ethyl]-4-hydroxy-5,6-dihydro-2H-pyran-2-one], for which the pIC50 was 8.40.

As for `CCc1cc(CCC2(C3CCCC3)CC(O)=C(Cc3nc4nc(C)cc(C)n4n3)C(=O)O2)ccc1CNCC1CC1` (stereo not drawn) [A(127), 6-Cyclopentyl-6-[2-(4-{[(cyclopropylmethyl)amino]methyl}-3-ethylphenyl)ethyl]-3-[(5,7-dimethyl[1,2,4]triazolo[1,5-a]pyrimidin-2-yl)methyl]-4-hydroxy-5,6-dihydro-2H-pyran-2-one], the negative logarithm of the IC50 (pIC50) is 6.89.

Take `Cc1cc(C)n2nc(N(C)C3C(=O)CC(CCc4ccc(C(C)(C)C#N)c(Cl)c4)(C4CCCC4)OC3=O)nc2n1` (stereo not drawn) [B(26), 2-[2-Chloro-4-(2-{2-cyclopentyl-5-[(5,7-dimethyl[1,2,4]triazolo[1,5-a]pyrimidin-2-yl)(methyl)amino]-4,6-dioxotetrahydro-2H-pyran-2-yl}ethyl)phenyl]-2-methylpropanenitrile]: the negative-log IC50 (pIC50) is 4.74.

Still in this test, the particulars now being: read-out: % inh @ 50 uM.
Take `CCc1cc(CCC2(C3CCCC3)CC(=O)CC(=O)O2)c(OC)cc1OCCN(C)C(=O)OC(C)(C)C` (stereo not drawn) [A(73), tert-Butyl 2-{4-[2-(2-cyclopentyl-4,6-dioxotetrahydro-2H-pyran-2-yl)ethyl]-2-ethyl-5-methoxyphenoxy}ethyl(methyl)carbamate]: the inhibition at 50 µM came out at 19%.
